Key:
Conditions in all cases: average where tested multiple times
BCAT2 [1] = target: T1, BCAT2 (Homo sapiens, UniProt O15382); test: BCAT2 in vitro cell inhibition using engineered A549 cells (KMV cell assay, 13C6-KMV by LC-MS/MS); type: cell-based; set-up: The result was an engineered A549 cell line that expressed endogenous BCAT2; endogenous in cells; host or cells: A549 cells with MUT and BCAT1 knocked out by CRISPR/CAS9; key to BCAT2 Cell Inhibition: A: less than or equal to 0.100 μM; B: greater than 0.100 and less than or equal to 0.500 μM; C: greater than 0.500 and less than or equal to 1.000 μM; d: greater than 1.000 μM; E: no fit
T1 sequence (O15382 28-392): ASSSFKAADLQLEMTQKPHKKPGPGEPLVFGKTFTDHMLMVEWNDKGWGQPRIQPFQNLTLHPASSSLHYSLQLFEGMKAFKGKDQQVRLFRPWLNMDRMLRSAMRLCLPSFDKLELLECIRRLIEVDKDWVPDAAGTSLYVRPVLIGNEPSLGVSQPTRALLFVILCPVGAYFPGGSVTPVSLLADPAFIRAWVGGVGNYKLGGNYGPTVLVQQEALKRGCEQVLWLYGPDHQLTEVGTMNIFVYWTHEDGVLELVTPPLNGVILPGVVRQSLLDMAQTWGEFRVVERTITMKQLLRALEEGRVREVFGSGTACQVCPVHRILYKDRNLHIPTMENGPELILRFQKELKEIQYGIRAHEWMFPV

hBCAT1 = target: T2, hBCAT1 (Homo sapiens, UniProt P54687); test: BCAT1 in vitro enzyme inhibition assay (resazurin/diaphorase-coupled fluorescence); type: biochemical
T2 sequence (P54687 1-386): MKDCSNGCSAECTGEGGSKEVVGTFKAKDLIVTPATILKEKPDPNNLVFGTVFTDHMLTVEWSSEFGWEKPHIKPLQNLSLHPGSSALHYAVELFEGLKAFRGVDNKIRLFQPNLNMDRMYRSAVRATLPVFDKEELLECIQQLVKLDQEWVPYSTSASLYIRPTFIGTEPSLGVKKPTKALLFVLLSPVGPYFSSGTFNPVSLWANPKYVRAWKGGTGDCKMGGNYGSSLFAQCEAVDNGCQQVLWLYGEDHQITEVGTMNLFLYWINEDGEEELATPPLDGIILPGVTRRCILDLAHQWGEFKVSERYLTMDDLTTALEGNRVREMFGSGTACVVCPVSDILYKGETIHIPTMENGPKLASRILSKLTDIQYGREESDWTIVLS
In short: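 Human BCAT1 activity read by resazurin/diaphorase-coupled fluorescence. Compounds added from 50× DMSO stocks at 1:50, giving 10-point 3-fold titrations from 100 μM top final concentration. Run in technical duplicate; repeat tests averaged.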

BCAT2 [2] = target: T1, BCAT2; test: BCAT2 in vitro enzyme inhibition assay (resazurin/diaphorase-coupled fluorescence); type: biochemical
In short: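 Coupled fluorescence readout: glutamate formed from L-leucine/α-ketoglutarate transamination drives GDH/NAD/diaphorase reduction of resazurin (Ex 540/Em 590). Human BCAT2 was first exposed 1 h at room temperature to compound, top final 100 μM in 3-fold, 10-point series; substrate reaction ran 1 h before SDS quench, in technical duplicate with DMSO max and enzyme-free min controls.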

SMILES | IC50 (BCAT2 [1]) | IC50 (hBCAT1) | IC50 (BCAT2 [2]) | BCAT2 Cell Inhibition (BCAT2 [1])
CC(C)Cc1nc2cnc(-n3ncc(C(C)O)n3)cc2n1[C@@H]1CCC[C@H](NC(=O)c2ncc(Cl)s2)C1 (stereo partly drawn) [Example 350, 5-chloro-N-((1S,3R)-3-(6-(4-(1-hydroxyethyl)-2H-1,2,3-triazol-2-yl)-2-isobutyl-1H-imidazo[4,5-c]pyridin-1-yl)cyclohexyl)thiazole-2-carboxamide] | 100 to 500 nM | 500 to 1000 nM | ≤ 100 nM | 
O=C(N[C@H]1CCC[C@@H](n2c(Nc3ccccc3)nc3cnc(-n4nccn4)cc32)C1)c1ncc(C(F)F)s1 [Example 73, 5-(difluoromethyl)-N-((1S,3R)-3-(2-(phenylamino)-6-(2H-1,2,3-triazol-2-yl)-1H-imidazo[4,5-c]pyridin-1-yl)cyclohexyl)thiazole-2-carboxamide] | > 1000 nM | > 5000 nM | ≤ 100 nM | 
CC(C)Cc1nc2cnc(-c3nc(Cl)cs3)cc2n1[C@@H]1CCC[C@H](NC(=O)c2ncc(Cl)s2)C1 [Example 329, 5-chloro-N-((1S,3R)-3-(6-(4-chlorothiazol-2-yl)-2-isobutyl-1H-imidazo[4,5-c]pyridin-1-yl)cyclohexyl)thiazole-2-carboxamide] | 500 to 1000 nM | 500 to 1000 nM | ≤ 100 nM | 
O=C(N[C@H]1CCC[C@@H](n2c(-c3ncccc3F)nc3cnc(-n4ccnn4)cc32)C1)c1ncc(Br)s1 [Example 35, 5-bromo-N-((1S,3R)-3-(2-(3-fluoropyridin-2-yl)-6-(1H-1,2,3-triazol-1-yl)-1H-imidazo[4,5-c]pyridin-1-yl)cyclohexyl)thiazole-2-carboxamide] | 500 to 1000 nM | 1000 to 5000 nM | ≤ 100 nM | 
N#Cc1ccccc1-c1nc2cnc(-c3nc[nH]n3)cc2n1[C@@H]1CCC[C@H](NC(=O)c2ccc(Cl)s2)C1 [Example 356, 5-chloro-N-((1S,3R)-3-(2-(2-cyanophenyl)-6-(1H-1,2,4-triazol-3-yl)-1H-imidazo[4,5-c]pyridin-1-yl)cyclohexyl)thiophene-2-carboxamide] | ≤ 100 nM | 500 to 1000 nM | ≤ 100 nM | 
O=C(N[C@H]1CCC[C@@H](n2c(Oc3ccccc3F)nc3cnc(-c4nc[nH]n4)cc32)C1)c1ncc(Cl)s1 [Example 192, 5-chloro-N-((1S,3R)-3-(2-(2-fluorophenoxy)-6-(1H-1,2,4-triazol-3-yl)-1H-imidazo[4,5-c]pyridin-1-yl)cyclohexyl)thiazole-2-carboxamide] | > 1000 nM | 1000 to 5000 nM | ≤ 100 nM | 
C#Cc1cnc(C(=O)N[C@H]2CCC[C@@H](n3c(-c4ccccc4F)nc4cnc(-c5ncco5)cc43)C2)s1 [Example 8, 5-ethynyl-N-((1S,3R)-3-(2-(2-fluorophenyl)-6-(oxazol-2-yl)-1H-imidazo[4,5-c]pyridin-1-yl)cyclohexyl)thiazole-2-carboxamide] | ≤ 100 nM | < 500 nM | ≤ 100 nM | 
Cc1coc(-c2cc3c(cn2)nc(-c2ccccc2F)n3[C@@H]2CCC[C@H](NC(=O)c3ncc(Cl)s3)[C@H]2O)n1 [Example 238, 5-chloro-N-((1S,2R,3R)-3-(2-(2-fluorophenyl)-6-(4-methyloxazol-2-yl)-1H-imidazo[4,5-c]pyridin-1-yl)-2-hydroxycyclohexyl)thiazole-2-carboxamide] | ≤ 100 nM | < 500 nM | ≤ 100 nM | 
O=C(N[C@H]1CCC[C@@H](n2c(-c3ccccc3F)nc3cnc(-c4cccnc4)cc32)C1)c1ncc(Cl)s1 [Example 180, 5-chloro-N-((1S,3R)-3-(2-(2-fluorophenyl)-6-(pyridin-3-yl)-1H-imidazo[4,5-c]pyridin-1-yl)cyclohexyl)thiazole-2-carboxamide] | 100 to 500 nM | 1000 to 5000 nM | ≤ 100 nM | 
CC(=O)N1CC(NC(=O)c2ncc(C(F)F)s2)CC(n2c(-c3ccccn3)nc3cnc(-n4ccnn4)cc32)C1 (stereo not drawn) [Example 122, N-(1-acetyl-5-(2-(pyridin-2-yl)-6-(1H-1,2,3-triazol-1-yl)-1H-imidazo[4,5-c]pyridin-1-yl)piperidin-3-yl)-5-(difluoromethyl)thiazole-2-carboxamide] |  | > 5000 nM | 100 to 500 nM | E

Other lines, results leading:

IC50 (BCAT2 [1]) | IC50 (hBCAT1) | IC50 (BCAT2 [2]) | BCAT2 Cell Inhibition (BCAT2 [1]) | SMILES
≤ 100 nM | < 500 nM | ≤ 100 nM |  | CC(C)Cc1nc2cnc(-c3nc[nH]n3)cc2n1[C@@H]1CCC[C@H](NC(=O)c2ccc(C(F)(F)F)s2)C1 [Example 342, N-((1S,3R)-3-(2-isobutyl-6-(1H-1,2,4-triazol-3-yl)-1H-imidazo[4,5-c]pyridin-1-yl)cyclohexyl)-5-(trifluoromethyl)thiophene-2-carboxamide]
≤ 100 nM | < 500 nM | ≤ 100 nM |  | O=C(N[C@H]1CCC[C@@H](n2c(-c3ccccc3F)nc3cnc(-c4ncco4)cc32)C1)c1ccc(Br)s1 [Example 7, 5-bromo-N-((1S,3R)-3-(2-(2-fluorophenyl)-6-(oxazol-2-yl)-1H-imidazo[4,5-c]pyridin-1-yl)cyclohexyl)thiophene-2-carboxamide]
≤ 100 nM | < 500 nM | ≤ 100 nM |  | CC(=O)N1CC(NC(=O)c2ncc(C(F)F)s2)CC(n2c(-c3ccccc3F)nc3cnc(-n4nccn4)cc32)C1 (stereo not drawn) [Example 123, N-(1-acetyl-5-(2-(2-fluorophenyl)-6-(2H-1,2,3-triazol-2-yl)-1H-imidazo[4,5-c]pyridin-1-yl)piperidin-3-yl)-5-(difluoromethyl)thiazole-2-carboxamide]
≤ 100 nM | < 500 nM | ≤ 100 nM |  | O=C(N[C@H]1CCC[C@@H](n2c(-c3ncccc3F)nc3cnc(-c4ccn[nH]4)cc32)C1)c1ccc(Cl)s1 [Example 78, 5-chloro-N-((1S,3R)-3-(2-(3-fluoropyridin-2-yl)-6-(1H-pyrazol-5-yl)-1H-imidazo[4,5-c]pyridin-1-yl)cyclohexyl)thiophene-2-carboxamide]
≤ 100 nM | < 500 nM | ≤ 100 nM |  | COc1cccc(F)c1-c1nc2cnc(-c3nc[nH]n3)cc2n1[C@@H]1CCCC[C@H](NC(=O)c2ccc(Cl)s2)[C@H]1O [Example 407, 5-chloro-N-((1S,2R,3R)-3-(2-(2-fluoro-6-methoxyphenyl)-6-(1H-1,2,4-triazol-3-yl)-1H-imidazo[4,5-c]pyridin-1-yl)-2-hydroxycycloheptyl)thiophene-2-carboxamide]
≤ 100 nM | < 500 nM | ≤ 100 nM |  | O=C(N[C@H]1C[C@H](O)C[C@@H](n2c(-c3ccccc3F)nc3cnc(-c4ncco4)cc32)C1)c1ncc(Cl)s1 [Example 260, 5-chloro-N-((1R,3S,5S)-3-(2-(2-fluorophenyl)-6-(oxazol-2-yl)-1H-imidazo[4,5-c]pyridin-1-yl)-5-hydroxycyclohexyl)thiazole-2-carboxamide]
100 to 500 nM | < 500 nM | ≤ 100 nM |  | CC(=O)N1CC(NC(=O)c2ccc(Cl)s2)CC(n2c(CC(C)C)nc3cnc(-n4nccn4)cc32)C1 (stereo not drawn) [Example 131, N-(1-acetyl-5-(2-isobutyl-6-(2H-1,2,3-triazol-2-yl)-1H-imidazo[4,5-c]pyridin-1-yl)piperidin-3-yl)-5-chlorothiophene-2-carboxamide]
500 to 1000 nM | < 500 nM | ≤ 100 nM |  | CNc1cc2c(cn1)nc(-c1ccccc1F)n2[C@@H]1C[C@@H](O)C[C@H](NC(=O)c2ncc(Cl)s2)C1 [Example 274, 5-chloro-N-((1R,3S,5S)-3-(2-(2-fluorophenyl)-6-(methylamino)-1H-imidazo[4,5-c]pyridin-1-yl)-5-hydroxycyclohexyl)thiazole-2-carboxamide]
≤ 100 nM | < 500 nM | ≤ 100 nM |  | O=C(N[C@H]1CCC[C@@H](n2c(-c3ccccn3)nc3cnc(-c4nc[nH]n4)cc32)C1)c1ncc(C(F)F)s1 [Example 53, 5-(difluoromethyl)-N-((1S,3R)-3-(2-(pyridin-2-yl)-6-(1H-1,2,4-triazol-3-yl)-1H-imidazo[4,5-c]pyridin-1-yl)cyclohexyl)thiazole-2-carboxamide]

— US20260159512A1, “BCAT2 INHIBITORS” (AGIOS PHARMACEUTICALS, INC., priority 2021, published 2026)
